Tests used:
[1] = system: R019 (HER2 inhibitor-resistant gastric cancer PDX model); test: Drug resistance test and combination administration in HER2 inhibitor-resistant gastric cancer PDX model (R019); assay type: in vivo; settings: R019 mice, 40 mg/kg intragastrically once a day
[2] = system: C019 (HER2 inhibitor-sensitive gastric cancer PDX model); test: Drug resistance test in HER2 inhibitor-sensitive gastric cancer PDX model (C019); assay type: in vivo; settings: C019 mice, 40 mg/kg intragastrically once a day
Excerpt: (§1) A large-scale patient-derived tumor xenograft (PDX) model was constructed with a small amount of advanced gastric cancer tissue obtained by real-time endoscopic biopsy, thereby establishing a PDX tissue library. The PDX tissue was taken from the PDX tissue library, revived and inoculated subcutaneously into the mice. […] The tumor tissue was separated, and re-inoculated into new mice. […] C019 represents the mice one month after subcutaneous inoculation of the revived PDX tissue, S019 represents the mice two weeks after the administration of the compound of formula (I) at a single dose of 20 mg/kg, and R019 represents the mice three months after the administration of the compound of formula (I) in a single dose of 40 mg/kg.
Protocol of the drug resistance test: the inhibitor group was administrated with the compound of formula (I) (intragastrically, once a day, in a single dose of 40 mg/kg), and the control group was administrated with an equal volume of normal saline. The tumor volume was measured every three days. The result of drug sensitivity of C019 and R019 models is shown in FIG. 1 (average value of five mice).

[3] = system: advanced gastric cancer PDX tissue; test: Construction of HER2 inhibitor-resistant PDX model by prolonged administration; assay type: in vivo, mice
Excerpt: as §1

For `CCOc1cc2ncc(C#N)c(Nc3ccc(OCc4ccccn4)c(Cl)c3)c2cc1NC(=O)/C=C/[C@H]1CCCN1C` [compound of formula (I)], the “drug sensitivity of the model” value [1] was “high resistance”, the “drug sensitivity of the model” value [2] was “highly sensitive” and the tumor inhibition rate ([2]; average value of five mice) was > 100%. The “tumor response after prolonged administration” value ([3]; 20 mg/kg intragastrically once a day for three months) was “resistance” and the “tumor response after prolonged administration” value ([3]; re-inoculated tumor, 40 mg/kg intragastrically once a day for three months) was “complete resistance”.
